Measured values from patent US3993765A, “1-Propyl-triazolyl antimycotic compositions and methods of treating mycoses” (Bayer Aktiengesellschaft, priority 1973, dated 1976).
In brackets after ≈: the same amount, converted by molar mass.

What was measured:
Candida albicans = experiment: Antimycotic activity in vitro (series dilution test), Candida albicans; assay type: cell-based; details: growth no longer detectable, Sabourauds' milieu d'epreuve, 28° C, 24 to 96 hours, read-out: Minimum inhibitory concentration
[1] = test system: Trichophyton mentagrophytes; experiment: Antimycotic activity in vitro (series dilution test), Trichophyton mentagrophytes; assay type: cell-based; details: growth no longer detectable, Sabourauds' milieu d'epreuve, 28° C, 24 to 96 hours, read-out: Minimum inhibitory concentration
Penicillium commune = experiment: Antimycotic activity in vitro (series dilution test), Penicillium commune; assay type: cell-based; details: growth no longer detectable, Sabourauds' milieu d'epreuve, 28° C, 24 to 96 hours, read-out: Minimum inhibitory concentration
Candida = experiment: Action in candidosis of mice; assay type: in vivo; details: mice SPF-CF1; 100 mg/kg orally one hour before and seven hours after i.v. infection; survivors on 6th day
Procedure: b. Candidosis of mice Mice of type SPF-CF1 were infected intravenously with 1-2 × 10^6 of logarithmically growing Candida cells which were suspended in physiological sodium chloride solution. One hour before and seven hours after the infection, the animals were treated orally, in each case with 100 mg of the preparations/kg of body weight. Untreated animals died of the infection 3 to 6 days after the infection. The survival rate on the 6th day after infection was about 5% in the case of untreated control animals.

MIC (Candida albicans) [µg/mL]	MIC [1] [µg/mL]	MIC (Penicillium commune) [µg/mL]	SMILES	Action in candidosis of mice (Candida)
> 64	> 64	> 64	CC(C)(C)C(O)C(Cn1cncn1)Oc1cccc(Cl)c1 (stereo not drawn)	
	4 (≈ 11.6 µM)	> 64	CC(C)(C)C(O)C(Cn1cncn1)Oc1ccc(Cl)cc1Cl (stereo not drawn)	
64 (≈ 211 µM)		64 (≈ 211 µM)	Cc1cccc(OC(Cn2cncn2)C(O)C(C)(C)C)c1C (stereo not drawn)	
	64 (≈ 218 µM)	64 (≈ 218 µM)	CC(C)(C)C(O)C(Cn1cncn1)Oc1ccc(F)cc1 (stereo not drawn)	
			CC(C)(C)C(O)C(Cn1cncn1)Oc1ccccc1Cl (stereo not drawn) [Example 4]	++++ (good action = 80% survivors on the 6th day after infection)
			CC(C)(C)C(O)C(Cn1cncn1)Oc1cc(Cl)ccc1Cl (stereo not drawn) [Example 7]	++++ (good action = 80% survivors on the 6th day after infection)
	32 (≈ 103 µM)	> 64	CC(C)(C)C(O)C(Cn1cncn1)Oc1ccccc1Cl (stereo not drawn) [drawing 4]	
	32 (≈ 93 µM)	> 64	CC(C)(C)C(O)C(Cn1cncn1)Oc1cc(Cl)ccc1Cl (stereo not drawn) [drawing 6]	
